The values that follow come from patent publication US20140213583A1, “PI3K Inhibitor for Use in the Treatment of Bone Cancer or for Preventing Metastatic Dissemination Primary Cancer Cells into the Bone” (NOVARTIS AG, priority 2011, published 2014).

Entries after “also recorded” stand apart in the source; their conditions may differ.

For data set [1], the system named is 453-EGFP cells (MDA-MB-453 human breast cancer cells expressing EGFP). As to the kind of experiment: Metastasis therapy with Compound A in Rag2-/-;Il2rg-/- mice challenged i.v. with 453-EGFP cells. Type of data set: in vivo. Particulars: 50 mg/kg per os daily. An excerpt: Rag2^−/−;Il2rg^−/− breeders were kindly given by Drs. T. Nomura and M. Ito of the Central Institute for Experimental Animals (Kawasaki, Japan). Mice were then bred in our animal facilities under sterile conditions. Athymic Crl:CD-1-Foxn1^nu/nu mice (referred to as nude mice) were purchased from Charles River Italy and kept under sterile conditions. Experiments were authorized by the institutional review board of the University of Bologna and done according to Italian and European guidelines.
MDA-MB-453 and BT-474 breast cancer cell lines were originally obtained from by Dr. Serenella M. Pupa (Istituto Nazionale dei Tumori, Milan, Italy). Cell lines were authenticated by DNA fingerprinting on the 11 Nov. 2010 (performed by DSMZ, Braunschweig, Germany). Cells were routinely cultured in Roswell Park Memorial Institute (RPMI) medium supplemented with 10% foetal bovine serum and were maintained at 37° C. in a humidified 5% CO2 atmosphere. All medium constituents were purchased from Invitrogen, Milan, Italy. In order to visualize metastatic cells/lesions, breast cancer cell lines were transfected with a plasmid expressing Enhanced Green Fluorescent Protein (pEGFP-N1, Clontech, Mountain View, Calif.) using Lipofectamine 2000 (Invitrogen). Stable transfectants were selected using G418 (Invitrogen). EGFP expression was monitored by fluorescence microscopy and quantified by cytofluorimetric analysis.
Nine-20-week-old female Rag2^−/−;Il2rg^−/− mice were used throughout this work. Local tumors were induced with 10^7 viable human tumour cells injected either subcutaneously in the right hind leg or in the fat pad of the fourth (abdominal) left mammary gland in 0.2 ml of PBS. Tumor diameters were periodically measured with digital calipers and tumor volumes calculated as […], where a=maximal tumor diameter and b=major tumor diameter perpendicular to a. For intravenous (i.v.) administrations, 2×10^6 cells in 0.4 ml PBS were injected in a tail vein. Nude mice (5-6 week-old) were treated i.v. with anti-asialo GM1 antiserum (Wako, Dusseldorf, Germany), 0.4 ml of a 1:30 dilution in PBS, to deplete NK activity, 24 h prior to the injection of human tumour cells. Pilot experiments were performed to assess for each cell line the time at which experimental metastases could be detected.
Tumor-bearing mice were sacrificed at various times (see Results), depending on tumor and metastasis growth, and were subjected to an accurate necropsy. Lungs were stained with black India ink to better outline metastases and fixed in Fekete's solution. Lung and liver metastases were counted using a dissection microscope. When EGFP-expressing cells were injected, whole mice and dissected organs were carefully examined using a Lightools imaging system (Lightools Research, Encinitas, Calif.) to detect fluorescent metastatic deposits. Quantification of metastatic load in brain and bone marrow was performed by immunofluorescence followed by cytofluorimetric analysis and by Real-Time PCR. Brain was minced with scissors and passed through a 70 μm cell strainer (Becton Dickinson, Bedford, Mass., USA) to obtain a homogeneous cell suspension. Bone marrow was flushed from both femurs in PBS and filtered through a 70 μm strainer. A mouse monoclonal antibody against human HER-2 (clone Neu 24.7, Becton Dickinson, San Jose, Calif., USA) labeled with phycoerythrin was used to quantify human cells by cytofluorometric analysis. Real-Time PCR was performed on genomic DNA extracted with 10 mM Tris-HCl buffer pH 8.3 containing 50 mM KCl, 2.5 mM MgCl2, 0.01% gelatin, 0.45% igepal, 0.45% tween 20 and 120 μg/ml proteinase K (all reagents from Sigma, Milan, Italy) by an overnight incubation at 56° C. followed by […] incubation at 95° C. to inactivate the proteinase K. A sequence of the α-satellite region of the human chromosome 17 was amplified. […]

For data set [2] the following is noted: from reference (8); cited from earlier work.

For the compound `Nc1cc(C(F)(F)F)c(-c2cc(N3CCOCC3)nc(N3CCOCC3)n2)cn1` [Compound A, 5-(2,6-di-morpholin-4-yl-pyrimidin-4-yl)-4-trifluoromethyl-pyridin-2-ylamine], the “inhibition in the number of human cells in the brain, HER-2 flow cytometry” value in data set [1] (37 treatments, HER-2-positive cells in dissociated brain (FIG. 2B)) is > 90%. The “inhibition in the number of human cells in the brain, human-specific qPCR” value in data set [1] (37 treatments, brain metastatic burden by qPCR (FIG. 2A)) is > 90%. The “number of bone metastases decreased” value in data set [1] (37 treatments, visual count of metastatic sites per mouse (FIG. 2C)) was determined as 67%. The “growth of 453-EGFP in heavily colonized organs (brain and lungs)” value in data set [1] (brain and lungs (FIG. 1B-C)) is “strongly inhibited”. The “incidence of metastases in different sites” value in data set [1] (brain, bone marrow and liver, p<0.05 at least, Fisher's exact test (FIG. 1A)) was “a sizeable proportion of mice were metastasis-free; also recorded: significant inhibition”. In addition, in data set [1] (different target organs), the “reduction of the metastatic burden” value was “highly significant and widespread reduction”. Further, the “penetration of the blood-brain barrier” value in data set [2] is “excellent penetration”.
